Test results published in patent US20150065499A1, “3-AMINOTHIENO[3,2-c]QUINOLINE DERIVATIVES, METHODS OF PREPARATION AND USES” (TEMPLE UNIVERSITY - OF THE COMMONWEALTH SYSTEM OF HIGHER …, priority 2012, published 2015).
Read-outs that look alike come from different tables or passages of the source.

Tests used:
Human PI3Kδ (p110δ/p85α) = biological target: T1, Human PI3Kδ (p110δ/p85α) (Homo sapiens, UniProt O00329); assay: PI3K isoform HTRF enzyme assay, PI3Kδ; format: biochemical; settings: for IC50: 10 μM PIP2, 10 μM ATP, HTRF, read-out: IC50 against PI3Kδ
T1 construct: N-terminal GST tagged recombinant full-length human p110δ; GST (N); host or cells: Baculovirus infected Sf9 cells
Method: (§1) The compound of Example 18, methyl 3-(4-fluorobenzamido)-7,8-dimethoxythieno[3,2-c]quinoline-2-carboxylate, was tested for ability to inhibit the four PI3K isoforms PI3Kα, PI3Kβ, PI3Kδ and PI3Kγ in a homogeneous time-resolved fluorescence (HTRF) enzyme assay.
(§2) The assay relies on the action of the aforesaid kinases on the substrate phosphatidylinositol (4,5)-bisphosphate (PIP2), providing the product phosphatidylinositol (3,4,5)-trisphosphate (PIP3). The PIP3 product is detected by displacement of biotin-PIP3 from an energy transfer complex consisting of Europium labeled anti-GST monoclonal antibody, a GST-tagged pleckstrin homology (PH) domain, biotinylated PIP3 and Streptavidin-Allophycocyanin (APC). Excitation of Europium in the complex results in an energy transfer to the APC and a fluorescent emission at 665 nm. The PIP3 product formed by PI 3-kinase(h) activity displaces biotin-PIP3 from the complex resulting in a loss of energy transfer and thus a decrease in signal. […]
(§3) The enzymes (PI3Kα, PI3Kβ, PI3Kδ or PI3Kγ) were delivered into the following kinase reaction buffer containing 10 μM PIP2 substrate: HEPES 50 mM (pH7.0), NaN3 0.02%, BSA 0.01%, Orthovanadate 0.1 mM, 1% DMSO. […] Homogeneous time-resolved fluorescence (HTRF) was measured (Ex=320 nm, ratio of Em=615 nm and Em=665 nm). […]

DU145 (prostate cancer) = assay: Cancer cell assay, DU145 tumor cells, viable cells after 96 hours; format: cell-based; settings: Homo sapiens, DU-145, 96 hours after treatment, called IC50
Method: (§4) The effect of the compounds of the invention on tumor cells was determined by the assay described by Latham et al., Oncogene 12:827-837 (1996). Tumor cells K562 (chronic myelogenous leukemia; leukemia cell line +ve for Bcr-Abl) or DU145 (prostate cancer) were plated in 12-well dishes at a cell density of 2.5×10^4 cells well. The plated cells were treated 24 hours later with a compound of the invention dissolved in DMSO at multiple concentrations ranging from 0.01 μM to 100 μM. The plates were examined 96 hours later under an inverted microscope, Olympus CK-2 using a 10× objective, and compound activity was noted by physical observation. When necessary, the total number of viable cells was determined by trypsinizing the wells and counting the number of viable cells, as determined by trypan blue exclusion, using a hemacytometer.

Human PI3Kγ (p120γ) = biological target: T2, Human PI3Kγ (p120γ) (Homo sapiens, UniProt P48736); assay: PI3K isoform HTRF enzyme assay, PI3Kγ; format: biochemical
T2 construct: His (N); host or cells: Baculovirus infected insect cells (printed 'SP)', probably a misprint of Sf9)
Method: as §1, §2, §3

Human PI3Kα (p110α/p85α) = biological target: T3, Human PI3Kα (p110α/p85α) (Homo sapiens, UniProt P42336); assay: PI3K isoform HTRF enzyme assay, PI3Kα; format: biochemical
T3 construct: N-terminal GST-tagged recombinant full-length human p110α; GST (N); host or cells: Baculovirus infected Sf9 cells
Method: as §1, §2, §3

Human PI3Kβ (p110β/p85α) = biological target: T4, Human PI3Kβ (p110β/p85α) (Homo sapiens, UniProt P42338); assay: PI3K isoform HTRF enzyme assay, PI3Kβ; format: biochemical
T4 construct: N-terminal 6His-tagged recombinant full-length human p110β; 6His (N); host or cells: Baculovirus infected Sf21 cells
Method: as §1, §2, §3

[1] = tested on: K562 (chronic myelogenous leukemia; leukemia cell line +ve for Bcr-Abl); assay: Cancer cell assay, K562 tumor cells, viable cells after 96 hours; format: cell-based; settings: Homo sapiens, 96 hours after treatment, called IC50
Method: as §4

T2 sequence (P48736 whole entry, canonical isoform): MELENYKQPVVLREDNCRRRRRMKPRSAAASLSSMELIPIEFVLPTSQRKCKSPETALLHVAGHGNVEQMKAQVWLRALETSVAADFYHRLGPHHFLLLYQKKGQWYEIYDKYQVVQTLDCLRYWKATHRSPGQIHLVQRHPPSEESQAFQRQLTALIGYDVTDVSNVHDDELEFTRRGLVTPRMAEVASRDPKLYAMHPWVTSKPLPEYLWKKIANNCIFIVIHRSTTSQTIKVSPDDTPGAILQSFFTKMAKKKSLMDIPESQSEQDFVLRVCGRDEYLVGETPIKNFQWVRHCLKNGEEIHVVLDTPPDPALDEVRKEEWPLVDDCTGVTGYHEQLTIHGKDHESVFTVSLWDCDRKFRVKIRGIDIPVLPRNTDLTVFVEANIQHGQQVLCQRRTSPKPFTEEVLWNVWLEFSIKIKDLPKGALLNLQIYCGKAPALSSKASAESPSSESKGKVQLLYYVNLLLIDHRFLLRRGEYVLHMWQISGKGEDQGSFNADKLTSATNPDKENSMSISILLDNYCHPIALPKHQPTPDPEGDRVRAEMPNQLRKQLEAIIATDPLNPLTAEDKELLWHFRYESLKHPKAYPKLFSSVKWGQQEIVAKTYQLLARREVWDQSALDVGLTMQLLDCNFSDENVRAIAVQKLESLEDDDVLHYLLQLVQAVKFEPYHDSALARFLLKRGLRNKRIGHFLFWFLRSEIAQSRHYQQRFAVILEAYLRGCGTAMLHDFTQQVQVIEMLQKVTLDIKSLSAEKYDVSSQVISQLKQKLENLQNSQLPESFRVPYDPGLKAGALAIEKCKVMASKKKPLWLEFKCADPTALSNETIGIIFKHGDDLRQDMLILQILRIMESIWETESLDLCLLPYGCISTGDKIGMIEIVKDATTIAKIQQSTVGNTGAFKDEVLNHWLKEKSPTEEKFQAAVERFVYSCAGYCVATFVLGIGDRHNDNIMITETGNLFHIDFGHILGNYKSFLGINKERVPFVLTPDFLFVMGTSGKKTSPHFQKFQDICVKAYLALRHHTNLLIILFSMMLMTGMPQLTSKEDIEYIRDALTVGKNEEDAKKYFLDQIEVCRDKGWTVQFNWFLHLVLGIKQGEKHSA
T1 sequence (O00329 whole entry, canonical isoform): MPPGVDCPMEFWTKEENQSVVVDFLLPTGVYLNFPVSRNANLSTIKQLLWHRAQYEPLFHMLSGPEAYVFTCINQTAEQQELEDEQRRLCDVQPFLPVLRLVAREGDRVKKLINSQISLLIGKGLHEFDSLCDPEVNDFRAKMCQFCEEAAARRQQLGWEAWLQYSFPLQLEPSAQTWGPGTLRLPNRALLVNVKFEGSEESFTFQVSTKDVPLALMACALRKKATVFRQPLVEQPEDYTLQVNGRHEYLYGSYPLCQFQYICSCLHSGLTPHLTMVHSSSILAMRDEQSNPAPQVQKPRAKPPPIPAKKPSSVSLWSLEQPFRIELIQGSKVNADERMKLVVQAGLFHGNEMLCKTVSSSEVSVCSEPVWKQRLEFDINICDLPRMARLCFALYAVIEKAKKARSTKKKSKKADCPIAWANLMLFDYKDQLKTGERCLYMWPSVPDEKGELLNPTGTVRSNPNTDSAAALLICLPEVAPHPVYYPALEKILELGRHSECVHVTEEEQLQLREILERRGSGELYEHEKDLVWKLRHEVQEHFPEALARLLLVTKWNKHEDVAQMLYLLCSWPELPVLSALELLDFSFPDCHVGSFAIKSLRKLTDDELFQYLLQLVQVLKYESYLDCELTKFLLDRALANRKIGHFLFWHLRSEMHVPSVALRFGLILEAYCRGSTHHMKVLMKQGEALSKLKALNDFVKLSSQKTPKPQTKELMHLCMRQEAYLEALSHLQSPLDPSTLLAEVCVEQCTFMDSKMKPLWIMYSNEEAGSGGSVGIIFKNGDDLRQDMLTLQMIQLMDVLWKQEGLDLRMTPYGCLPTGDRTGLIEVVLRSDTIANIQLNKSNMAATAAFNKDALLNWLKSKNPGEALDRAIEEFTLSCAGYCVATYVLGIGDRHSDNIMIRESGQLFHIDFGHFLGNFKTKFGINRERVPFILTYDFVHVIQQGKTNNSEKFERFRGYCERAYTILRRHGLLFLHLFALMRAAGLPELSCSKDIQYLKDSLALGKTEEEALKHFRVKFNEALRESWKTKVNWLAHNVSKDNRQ
T1 sequence (P27986 whole entry partner, canonical isoform): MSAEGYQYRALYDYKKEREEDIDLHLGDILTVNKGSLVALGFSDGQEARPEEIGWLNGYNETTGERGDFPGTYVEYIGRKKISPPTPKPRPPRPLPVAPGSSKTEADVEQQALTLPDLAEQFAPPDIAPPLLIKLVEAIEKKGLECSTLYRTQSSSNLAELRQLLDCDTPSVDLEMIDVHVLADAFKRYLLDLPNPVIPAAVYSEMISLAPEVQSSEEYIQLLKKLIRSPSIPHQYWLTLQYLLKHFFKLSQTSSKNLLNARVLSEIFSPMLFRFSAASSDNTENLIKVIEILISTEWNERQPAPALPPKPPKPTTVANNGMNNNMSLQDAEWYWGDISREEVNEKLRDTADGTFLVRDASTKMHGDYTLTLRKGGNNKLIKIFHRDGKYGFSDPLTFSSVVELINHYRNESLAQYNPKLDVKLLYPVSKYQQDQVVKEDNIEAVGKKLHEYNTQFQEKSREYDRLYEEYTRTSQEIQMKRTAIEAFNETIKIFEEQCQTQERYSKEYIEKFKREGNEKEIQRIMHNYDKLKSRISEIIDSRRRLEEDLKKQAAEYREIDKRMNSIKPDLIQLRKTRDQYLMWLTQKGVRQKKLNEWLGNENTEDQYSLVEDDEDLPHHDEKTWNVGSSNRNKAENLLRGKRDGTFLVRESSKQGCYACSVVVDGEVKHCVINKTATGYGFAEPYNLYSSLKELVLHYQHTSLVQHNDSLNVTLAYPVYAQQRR
T4 sequence (P42338 whole entry, canonical isoform): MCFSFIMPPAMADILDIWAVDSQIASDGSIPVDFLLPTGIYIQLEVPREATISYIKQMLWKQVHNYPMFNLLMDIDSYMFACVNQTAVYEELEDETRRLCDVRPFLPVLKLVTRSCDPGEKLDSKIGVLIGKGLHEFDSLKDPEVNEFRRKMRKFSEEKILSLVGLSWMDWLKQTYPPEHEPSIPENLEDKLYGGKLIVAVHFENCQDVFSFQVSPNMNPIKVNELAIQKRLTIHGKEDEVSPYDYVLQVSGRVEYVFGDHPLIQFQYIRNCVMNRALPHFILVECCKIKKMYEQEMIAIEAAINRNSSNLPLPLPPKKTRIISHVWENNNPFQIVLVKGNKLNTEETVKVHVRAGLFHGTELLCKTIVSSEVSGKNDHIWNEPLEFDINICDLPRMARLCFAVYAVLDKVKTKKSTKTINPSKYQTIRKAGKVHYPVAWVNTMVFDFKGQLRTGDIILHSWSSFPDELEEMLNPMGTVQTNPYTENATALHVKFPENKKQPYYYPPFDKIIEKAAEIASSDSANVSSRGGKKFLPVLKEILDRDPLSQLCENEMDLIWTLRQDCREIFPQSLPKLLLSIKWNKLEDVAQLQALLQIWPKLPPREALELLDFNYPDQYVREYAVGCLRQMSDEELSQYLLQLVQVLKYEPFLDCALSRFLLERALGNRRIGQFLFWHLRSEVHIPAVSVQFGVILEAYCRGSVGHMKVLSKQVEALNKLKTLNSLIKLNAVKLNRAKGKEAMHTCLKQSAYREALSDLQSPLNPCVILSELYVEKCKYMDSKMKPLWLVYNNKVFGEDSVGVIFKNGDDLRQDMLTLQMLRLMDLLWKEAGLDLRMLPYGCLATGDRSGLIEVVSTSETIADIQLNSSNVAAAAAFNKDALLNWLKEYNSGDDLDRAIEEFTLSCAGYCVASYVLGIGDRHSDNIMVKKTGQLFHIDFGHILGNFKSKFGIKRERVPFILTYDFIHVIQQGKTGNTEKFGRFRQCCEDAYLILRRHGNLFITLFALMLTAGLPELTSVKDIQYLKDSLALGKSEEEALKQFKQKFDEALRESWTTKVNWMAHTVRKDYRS
T4 sequence (P27986 whole entry partner, canonical isoform): as the sequence (P27986 whole entry partner, canonical isoform) above
T3 sequence (P42336 whole entry, canonical isoform): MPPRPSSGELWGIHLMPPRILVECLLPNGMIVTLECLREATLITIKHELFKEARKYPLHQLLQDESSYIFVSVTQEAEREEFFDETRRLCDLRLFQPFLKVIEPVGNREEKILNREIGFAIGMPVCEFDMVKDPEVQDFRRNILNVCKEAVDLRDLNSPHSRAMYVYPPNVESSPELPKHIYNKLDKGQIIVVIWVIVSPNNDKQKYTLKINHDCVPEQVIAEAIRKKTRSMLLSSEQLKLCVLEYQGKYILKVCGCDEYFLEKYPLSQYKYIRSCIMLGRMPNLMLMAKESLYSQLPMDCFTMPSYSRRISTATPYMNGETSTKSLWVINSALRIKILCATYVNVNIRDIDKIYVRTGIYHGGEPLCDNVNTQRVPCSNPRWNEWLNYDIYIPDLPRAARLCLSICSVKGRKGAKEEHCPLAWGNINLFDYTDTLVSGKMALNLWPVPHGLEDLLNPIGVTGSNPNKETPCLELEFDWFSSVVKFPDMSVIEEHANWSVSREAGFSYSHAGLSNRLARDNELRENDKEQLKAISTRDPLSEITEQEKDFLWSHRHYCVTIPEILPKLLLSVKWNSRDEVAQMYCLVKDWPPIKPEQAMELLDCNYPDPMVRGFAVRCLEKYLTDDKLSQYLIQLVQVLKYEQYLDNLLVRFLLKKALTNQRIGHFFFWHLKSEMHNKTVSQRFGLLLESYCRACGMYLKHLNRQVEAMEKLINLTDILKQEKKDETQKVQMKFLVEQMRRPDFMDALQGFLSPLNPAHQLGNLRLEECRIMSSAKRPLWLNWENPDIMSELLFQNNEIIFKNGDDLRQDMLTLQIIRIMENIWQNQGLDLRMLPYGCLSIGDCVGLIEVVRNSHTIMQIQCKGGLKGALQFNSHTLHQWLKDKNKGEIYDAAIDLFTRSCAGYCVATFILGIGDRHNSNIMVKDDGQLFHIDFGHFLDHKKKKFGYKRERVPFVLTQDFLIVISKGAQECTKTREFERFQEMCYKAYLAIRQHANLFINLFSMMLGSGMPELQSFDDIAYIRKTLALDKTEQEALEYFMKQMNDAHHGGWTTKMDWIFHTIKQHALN
T3 sequence (P27986 whole entry partner, canonical isoform): as the sequence (P27986 whole entry partner, canonical isoform) above

SMILES | IC50 (DU145 (prostate cancer)) [µM] | melting point [°C] | IC50 [1] [µM] | further results
COC(=O)c1sc2c(cnc3cc(OC)c(OC)cc32)c1NC(=O)c1ccc(F)cc1 [Example 18, Methyl 3-(4-fluorobenzamido)-7,8-dimethoxythieno[3,2-c]quinoline-2-carboxylate] | 2.5 | 196 to 198 | 0.15 | IC50 (Human PI3Kδ (p110δ/p85α)): 25.7 µM; inhibition of other isoforms of PI3K (PI3Kδ), in words (Human PI3Kδ (p110δ/p85α); Table 2): does not inhibit; IC50 (Human PI3Kγ (p120γ); 10 μM PIP2, 10 μM ATP, HTRF, read-out: IC50 against PI3Kγ): 1.01 µM; IC50 (Human PI3Kγ (p120γ); Table 2, read-out: IC50 against PI3Kγ isoform): 1 µM; selective inhibition of the activity of PI3Kγ, in words (Human PI3Kγ (p120γ); statement in description): selectively inhibits; IC50 (Human PI3Kα (p110α/p85α); 10 μM PIP2, 10 μM ATP, HTRF, read-out: IC50 against PI3Kα): 25.3 µM; inhibition of other isoforms of PI3K (PI3Kα), in words (Human PI3Kα (p110α/p85α); Table 2): does not inhibit; IC50 (Human PI3Kβ (p110β/p85α); 10 μM PIP2, 10 μM ATP, HTRF, read-out: IC50 against PI3Kβ): 8.54 µM; inhibition of other isoforms of PI3K (PI3Kβ), in words (Human PI3Kβ (p110β/p85α); Table 2): does not inhibit
COc1cc2ncc3c(N)c(C(=O)c4ccc(F)cc4)sc3c2cc1OC [Example 3, (3-Amino-7,8-dimethoxythieno[3,2-c]quinolin-2-yl)(4-fluorophenyl)methanone] | > 10 | 286 to 288 | > 10 | –
COC(=O)c1sc2c(cnc3cc(O)c(OC)cc32)c1N [Example 9, Methyl 3-amino-7-hydroxy-8-methoxythieno[3,2-c]quinoline-2-carboxylate] | > 10 | 244 to 246 | 1 to 10 | –
COC(=O)c1sc2c(cnc3cc(OC)c(OC)cc32)c1NC(=O)C(F)(F)F [Example 23, Methyl 7,8-dimethoxy-3-(2,2,2-trifluoroacetamido)thieno[3,2-c]quinoline-2-carboxylate] | 0.75 | 224 to 230 | 0.2 | –
COC(=O)c1sc2c(cnc3ccc(F)cc32)c1N [Example 34, Methyl 3-amino-8-fluorothieno[3,2-c]quinoline-2-carboxylate] | 10 | 270 to 272 | 10 | –
COC(=O)c1sc2c(cnc3cc(OCCN4CCOCC4)c(OC)cc32)c1N [Example 14, Methyl 3-amino-8-methoxy-7-(2-morpholinoethoxy)thieno[3,2-c]quinoline-2-carboxylate] | 10 to 25 | 158 to 160 | 10 to 25 | –
O=c1cc(N2CCOCC2)oc2c(-c3ccccc3)cccc12 [LY294002, 2-(4-morpholinyl)-8-phenyl-chromone, reference compound] | – | – | – | IC50 (Human PI3Kδ (p110δ/p85α)): 0.32 µM
COC(=O)c1sc2c(cnc3cc(OC(=O)N4CCN(C)CC4)c(OC)cc32)c1N [Example 13, Methyl 3-amino-8-methoxy-7-[(4-methylpiperazine-1-carbonyl)oxy]thieno[3,2-c]quinoline-2-carboxylate] | 10 to 25 | 147 to 150 | 10 to 25 | –
